# Test results as given in patent US20250195452A1, “ER-BETA ESTROGENIC COMPOUNDS AND METHODS OF USE” (laterion, Inc., priority 2022, published 2025).
# Entries after “also recorded” stand apart in the source; their conditions may differ.
# Columns and labels:
# ERα = molecular target: T1, ERα (Homo sapiens, UniProt P03372); experiment: Luciferase activity of ligands on the activation of the NKG2E ERE in U2OS-ERα cells; assay type: cell-based; details: for Activity in ERα U2OS cells: indicated micromolar concentrations, 24 hours; for Activation of ERα (NKG2E ERE luciferase activity): U2OS-ERα cells
# T1 construct: expressed in transfected cells; host or cells: U2OS
# T1 sequence (P03372 1-595): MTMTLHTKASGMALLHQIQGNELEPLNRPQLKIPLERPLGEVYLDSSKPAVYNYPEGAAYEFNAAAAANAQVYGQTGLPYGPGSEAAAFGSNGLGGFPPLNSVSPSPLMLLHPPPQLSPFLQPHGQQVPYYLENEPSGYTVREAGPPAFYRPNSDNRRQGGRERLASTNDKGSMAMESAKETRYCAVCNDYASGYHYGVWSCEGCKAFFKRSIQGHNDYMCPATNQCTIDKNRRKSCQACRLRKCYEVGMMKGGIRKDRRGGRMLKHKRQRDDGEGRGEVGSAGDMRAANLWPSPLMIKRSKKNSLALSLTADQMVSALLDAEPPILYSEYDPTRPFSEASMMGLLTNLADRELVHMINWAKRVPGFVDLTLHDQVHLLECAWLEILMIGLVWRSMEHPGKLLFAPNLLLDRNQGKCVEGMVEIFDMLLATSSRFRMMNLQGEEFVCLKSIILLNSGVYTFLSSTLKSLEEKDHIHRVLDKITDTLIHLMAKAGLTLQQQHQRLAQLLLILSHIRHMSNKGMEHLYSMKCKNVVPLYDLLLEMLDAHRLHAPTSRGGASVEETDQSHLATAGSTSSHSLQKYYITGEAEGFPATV
# Description: (§1) U2OS cells (wild type) were maintained in 5% charcoal-dextran stripped FBS.
# ERβ = molecular target: T2, ERβ (Homo sapiens, UniProt Q92731); experiment: Luciferase activity in U2OS cells transfected with NKG2E-TK-Luc and ERβ; assay type: cell-based; details: 200 nM
# T2 construct: expressed in transfected cells; host or cells: U2OS
# T2 sequence (Q92731 whole entry): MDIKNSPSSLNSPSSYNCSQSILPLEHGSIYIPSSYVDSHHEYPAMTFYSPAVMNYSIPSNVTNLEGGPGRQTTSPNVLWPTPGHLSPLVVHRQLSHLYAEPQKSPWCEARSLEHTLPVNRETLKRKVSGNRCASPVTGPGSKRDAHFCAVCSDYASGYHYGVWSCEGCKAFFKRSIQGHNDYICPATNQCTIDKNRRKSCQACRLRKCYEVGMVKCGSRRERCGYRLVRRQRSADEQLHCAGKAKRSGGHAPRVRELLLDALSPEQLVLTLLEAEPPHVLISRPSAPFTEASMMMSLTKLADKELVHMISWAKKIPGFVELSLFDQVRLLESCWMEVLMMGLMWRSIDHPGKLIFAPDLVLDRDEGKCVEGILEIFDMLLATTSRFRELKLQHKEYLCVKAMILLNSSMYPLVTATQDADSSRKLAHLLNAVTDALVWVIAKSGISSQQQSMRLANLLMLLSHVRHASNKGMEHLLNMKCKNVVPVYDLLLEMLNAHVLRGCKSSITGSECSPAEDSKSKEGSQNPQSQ
# Experimental: as §1
# Luciferase activity for each of the tested compounds was recorded.
# GRE-TK-Luk, GR, and ERβ = experiment: Luciferase activity in GRE-TK-Luc-transfected U2OS-ERβ cells with doxycycline and hydrocortisone; assay type: cell-based; details: HC 100 nM; compounds at 0.5, 1, 2.5 and 5 μM; doxycycline
# Experimental: Example 12: Luciferase Activity in GRE-TK-Luc-Transfected U2OS-ERβ cells with doxycycline. Doxycycline-dependent U2OS cells were transfected with GRE-TK-Luk, GR, and ERβ in the presence of hydrocortisone (HC, 100 nM) alone or in combination with Liquiritigenin, A10, A13, and A15. Luciferase activity for each of the compounds at 0.5, 1, 2.5 and 5 μM concentration was recorded.
# [1] = Effects of ERβ compounds on uterine weight (histology, FIG. 16A-B); assay type: in vivo; details: in comparison to estradiol
# Description: Example 11: Effects of ERβ compounds on uterine and breast cancer cells.
# [2] = system: MCF-7 breast cancer cells; experiment: Effects of ERβ compounds on breast cancer tumor formation (histology, FIG. 16A-B); assay type: in vivo; details: in comparison to estradiol
Compound,Activity in ERα U2OS cells (ERα),Activation of ERβ (NKG2E-TK-Luc luciferase activity) (ERβ),also measured
"O=c1c(O)c(-c2ccc(O)cc2)oc2ccccc12 [3,4′-Dihydroxyflavone]",little or no activity,,
"O=c1cc(-c2ccc(O)cc2)oc2cccc(O)c12 [5,4′-Dihydroxyflavone]",little or no activity,activate ERβ,
"O=c1cc(-c2ccc(O)cc2)oc2ccc(O)cc12 [6,4′-Dihydroxyflavone]",little or no activity,activate ERβ,Activation of ERα (NKG2E ERE luciferase activity) (ERα; 1 μM): activate ERα
COc1c(O)cc2oc(-c3ccc(O)c(O)c3)cc(=O)c2c1O [6-methoxyluteolin],little or no activity,,
"O=c1cc(-c2ccccc2O)oc2cc(O)ccc12 [7,2′-Dihydroxyflavone]",little or no activity,,
"O=c1cc(-c2cccc(O)c2)oc2cc(O)ccc12 [7,3′-Dihydroxyflavone]",little or no activity,,
"O=c1cc(-c2ccc(O)cc2)oc2cc(O)ccc12 [7,4′-Dihydroxyflavone]",little or no activity,activate ERβ,Activation of ERα (NKG2E ERE luciferase activity) (ERα; 5 μM): activate ERα
"O=C(/C=C/c1cccc(O)c1)c1ccc(O)c(O)c1O [A10, (E)-3-(3-hydroxyphenyl)-1-(2,3,4-trihydroxyphenyl) prop-2-en-1-one]",,,"Effect on hydrocortisone (HC) induced luciferase activity (GRE-TK-Luk, GR, and ERβ): attenuated the effect of HC"
"O=C(/C=C/c1ccc(O)cc1)c1ccccc1 [A15, (E)-3-(4-hydroxyphenyl)-1-phenylprop-2-en-1-one]",,,"Effect on hydrocortisone (HC) induced luciferase activity (GRE-TK-Luk, GR, and ERβ): attenuated the effect of HC"
"O=C(/C=C/c1ccc(O)cc1)c1ccc(O)cc1 [Analog 13, (E)-1,3-bis(4-hydroxyphenyl) prop-2-en-1-one]",,activate ERβ,"Effect on hydrocortisone (HC) induced luciferase activity (GRE-TK-Luk, GR, and ERβ): attenuated the effect of HC; Activation of ERα (NKG2E ERE luciferase activity) (ERα; 5 μM): activate ERα"
O=c1cc(-c2ccc(O)cc2)oc2cc(O)cc(O)c12 [Apigenin],,activate ERβ,
COc1ccc(-c2coc3cc(O)ccc3c2=O)cc1O [Calycosin],little or no activity,,Uterine weight [1]: do not increase uterine weight; Breast cancer tumor formation ([2]; listed as IATERB6): do not increase uterine weight or cause breast cancer tumor formation; also recorded: do not increase uterine breast cancer tumor formation
Oc1ccc([C@H]2COc3cc(O)ccc3C2)cc1 [Equol],little or no activity,,Activation of ERα (NKG2E ERE luciferase activity) (ERα; 1 μM): activate ERα
O=c1c(O)c(-c2ccccc2)oc2cc(O)cc(O)c12 [Galangin],little or no activity,,
O=C1C[C@@H](c2ccc(O)cc2)Oc2cc(O)ccc21 [Liquiritigenin],little or no activity,,"Effect on hydrocortisone (HC) induced luciferase activity (GRE-TK-Luk, GR, and ERβ): attenuated the effect of HC; Uterine weight [1]: do not increase uterine weight; Breast cancer tumor formation ([2]; listed as IATERB7): do not increase uterine weight or cause breast cancer tumor formation; also recorded: do not increase uterine breast cancer tumor formation; Activation of ERα (NKG2E ERE luciferase activity) (ERα; 5 μM): activate ERα"
O=c1cc(-c2ccc(O)c(O)c2)oc2cc(O)cc(O)c12 [Luteolin],little or no activity,,
O=C1C[C@@H](c2ccc(O)cc2)Oc2cc(O)cc(O)c21 [Naringenin],little or no activity,activate ERβ,
C=C[C@H](/C=C\c1ccc(O)cc1)c1ccc(O)cc1 [Nyasol],little or no activity,activate ERβ,Uterine weight [1]: do not increase uterine weight; Breast cancer tumor formation ([2]; listed as IATERB5): do not increase uterine weight or cause breast cancer tumor formation; also recorded: do not increase uterine breast cancer tumor formation; Activation of ERα (NKG2E ERE luciferase activity) (ERα; 1 μM): activate ERα
COc1c(O)cc(O)c2c(=O)cc(-c3ccccc3)oc12 [Wogonin],little or no activity,,
Broussonin A,little or no activity,,Activation of ERα (NKG2E ERE luciferase activity) (ERα; 1 μM): activate ERα
